Data on six compounds can be found in patent publication US7378121B2, “Use of ferulic acid amides as flavor compounds” (Symrise GmbH & Co. KG, priority 2001, dated 2008).

SMILES strings stand for the structures.

The nature of series [1]: Tasting of the pungent compounds in 11% strength by weight sugar solution (Example 1). The class given is in vivo, human. The following applies: approx. 5 ml swallowed, 8 testers. On the procedure: The substance, under test, was dissolved in ethanol and the ethanolic solution was then diluted with an 11% strength by weight sugar solution (final concentration: c). For tasting, in each case approximately 5 ml of the sugar solution was swallowed. If the threshold value of the substance was known, a value just above the threshold value is chosen for the tasting. A group of 8 testers tasted the solutions.

A short description of series [2]: Sensory assessment of the pungency of liqueur base model system A (10% by volume) with additions. The series is classed as in vivo, human. The following applies: 1% by weight of solution (1% by weight in EtOH) added to model system A. As for the experimental part: (§1) The grains of paradise extract used below was prepared by stirring 800 g of ground grains of paradise with 4 kg of ethanol (96% by volume). After filtration the filtrate was concentrated to 40 g and treated with steam at 100° C. and 300 mbar. The extract was made up to 80 g with ethanol (96% by volume).
(§2) As commercially conventional model systems, a liqueur base of 10% by volume and a liqueur base of 5.5% by volume were selected.
To the model system A were then added the solution of the extract of grains of paradise (1% by weight in ethanol (EtOH)) at concentrations of 1 to 3% by weight, based on the total weight of the model system, and a solution of trans-feruloylmethoxytyramine (1% by weight in ethanol) at a concentration of 1% by weight, based on the total weight of the model system. Using a taste-testing group of 8 people, the effect of grains of paradise extract addition and trans-feruloylmethoxytyramine addition on the sensory profile were then tested. The sensory assessment was made on a scale of 1 (weak) to 5 (strong).

The nature of series [3]: Test of the combined action of grains of paradise extract and trans-feruloylmethoxytyramine in model system A. To be noted: 0.02% by weight solution (10% by weight EtOH) in model system A. The class given is in vivo, human. As for the experimental part: as §1, §2
Then, to model system A the solution of a grains of paradise extract (10% by weight in ethanol) was added at concentrations of 0.1 to 0.2% by weight, based on the total weight of the model system, and a solution of trans-feruloylmethoxytyramine (10% by weight in ethanol) at a concentration of 0.01 to 0.02% by weight, based on the total weight of the model system. Using a taste-testing group of 8 people, again the effect of grains of paradise extract addition and of trans-feruloylmethoxytyramine addition on the sensory profile were tested. In addition, the combined action was tested.

Series [4] in a line: Gelled fruits having elderberry flavor, flavor intensifier test. The class given is in vivo, human. To be noted: elderberry flavor 0.07% by weight. From the text: As commercially conventional model system, flavor combinations in gelled fruits having elderberry flavor were used: […]
The conditions of series [5]: in vivo; cited from earlier work.
For series [6] the following is noted: with frequent use and overdose; cited from earlier work.
The subject of the next series is mouse. The following applies: cited from earlier work.

For the compound `COc1cc(/C=C/C(=O)NCCc2ccc(O)c(OC)c2)ccc1O` [trans-feruloylmethoxytyramine, N-[2-(4-hydroxy-3-methoxyphenyl)ethyl]-3-(4-hydroxy-3-methoxyphenyl)-(2E)-propenamide], the Sensory profile result in series [1] (c=10 ppm in 11% sugar solution) is recorded as “body, sweet, heat develops after delay, long-lasting, especially in the pharyngeal cavity (in the case of 4 participants), adherent, slightly anaesthetizing action”; in series [1] (c=20 ppm in 11% sugar solution), “sweet, aniseed-like, benzaldehyde, heat develops after a delay (in the case of 8 participants), long-lasting, especially in the pharyngeal cavity, pleasant pepper pungency”. In addition, the Sensory description result is “Sweet, vanilla, fruity, less” in series [2]; “Effect only slightly perceptible” in series [4] (0.015% by weight of solution (1% by weight in ethanol)); “Effect below threshold, but pleasant” in series [4] (0.03% by weight of solution (1% by weight in ethanol)); “Flavor fresh and rounded” in series [4] (0.045% by weight of solution (1% by weight in ethanol)). The “Pungency (median), Scale 1-5” value in series [2] (scale 1 (weak) to 5 (strong), 8 people) is 2. In addition, the “Comments (sensory)” value in series [3] is “Mild, pungency very similar”.
On to `COc1cc(/C=C\C(=O)NCCc2ccc(O)c(OC)c2)ccc1O` [cis-feruloylmethoxytyramine, N-[2-(4-hydroxy-3-methoxyphenyl)ethyl]-3-(4-hydroxy-3-methoxyphenyl)-(2Z)-propenamide], for which the Sensory profile entry in series [1] (c=1 ppm in 11% sugar solution) was “pungency builds up slowly”.
`O=C(/C=C/c1ccc(O)c(O)c1)NCCc1ccc(O)cc1` [trans-caffeoyltyramine, N-[2-(4-hydroxyphenyl)ethyl]-3-(3,4-dihydroxyphenyl)-(2E)-propenamide]: the Sensory profile result in series [1] (c=1 ppm in 11% sugar solution) is listed as “pungency occurs after a delay, anaesthetizing pungency”.
As for `COc1cc(/C=C/C(=O)NCc2ccc(O)c(OC)c2)ccc1O` [ferulic acid N-vanillylamide, N-(4-hydroxy-3-methoxybenzyl)-4-hydroxy-3-methoxy-(2E)-propenamide], the “Pungency as described in the literature” value in series [5] is “not described as pungent”.
On to `COc1cc(CNC(=O)CCCC/C=C/C(C)C)ccc1O` [capsaicin, N-(4-hydroxy-3-methoxybenzyl)-8-methyl-(6E)-nonenamide], for which the Chronic damage entry in series [6] is “chronic gastritis, kidney damage and liver damage”. In addition, in the series with mouse, the “LD50 (mouse oral)” value is 47 mg.
`COc1ccc(/C=C/C(=O)NCCc2ccc(OC)c(OC)c2)cc1OC` [trans-rubenamine, N-[2-(3,4-dimethoxyphenyl)ethyl]-3-(3,4-dimethoxyphenyl)-(2E)-propenamide]: the Sensory profile entry in series [1] (c=1 ppm in 11% sugar solution) is reported as “pleasant mild pungency, builds up slowly”.
